# Laboratory results from paper PMC4657054, “First Structural View of a Peptide Interacting with the Nucleotide Binding Domain of Heat Shock Protein 90” (Scientific Reports, 2015).
# Residues, ends and D or L forms follow the SMILES beside them. No end group written: not given here.
# B1: heptapeptide Gly-Arg-Asp-Leu-Tyr-Asp-Asp (peptide)
# peptide: GRDLYDD
# notes: numbered from -14 to -8 starting from Gly; No peptide was added for the crystal; also called GRDLYDD; the peptide; source: for the ATPase assay: synthetic peptide, bought: Custom peptide synthesis, USV Limited, Mumbai
# Legend:
# [1] = molecular target: T1, HspD (Hsp90 of Dictyostelium discoideum) (Dictyostelium discoideum, UniProt P54651); test: ATPase activity of HspD (pRSET A construct) in presence of peptide; type: biochemical; conditions: for inhibition of ATPase activity of HspD: pre-incubation 0.5 h room temperature, reaction 37 °C 1 h
# T1 construct: We had earlier reported the activity studies of the full length protein; hexahistidine tag (N); pRSET A vector linker containing Gly-Arg-Asp-Leu-Tyr-Asp-Asp (N); made in house; host or cells: E. coli Rosetta
# T1 sequence (P54651 whole entry): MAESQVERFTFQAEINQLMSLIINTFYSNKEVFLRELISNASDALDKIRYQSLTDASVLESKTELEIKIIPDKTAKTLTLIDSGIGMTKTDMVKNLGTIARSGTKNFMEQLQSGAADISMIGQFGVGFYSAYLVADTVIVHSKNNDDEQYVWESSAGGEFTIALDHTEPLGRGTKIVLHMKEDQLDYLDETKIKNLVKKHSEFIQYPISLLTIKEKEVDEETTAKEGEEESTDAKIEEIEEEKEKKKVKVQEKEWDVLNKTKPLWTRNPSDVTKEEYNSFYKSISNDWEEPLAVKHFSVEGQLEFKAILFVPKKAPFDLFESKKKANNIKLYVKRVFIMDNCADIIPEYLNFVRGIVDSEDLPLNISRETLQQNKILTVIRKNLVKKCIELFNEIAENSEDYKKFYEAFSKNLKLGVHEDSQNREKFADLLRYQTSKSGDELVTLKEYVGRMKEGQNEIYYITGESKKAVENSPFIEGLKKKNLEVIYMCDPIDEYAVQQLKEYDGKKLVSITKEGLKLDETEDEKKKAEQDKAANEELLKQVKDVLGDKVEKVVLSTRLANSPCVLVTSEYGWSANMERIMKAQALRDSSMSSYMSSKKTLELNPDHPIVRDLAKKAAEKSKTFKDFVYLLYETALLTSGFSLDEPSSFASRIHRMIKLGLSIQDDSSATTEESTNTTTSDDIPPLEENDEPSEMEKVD
# Method: ATPase assay for HspD was carried out in presence of varying concentrations of the peptide and fixed ATP concentration of 500 μM. In presence of the peptide, there is a significant dose dependent inhibition of ATPase activity of HspD, starting from 5 mM concentration of the peptide (Fig. 5a).
# (§1) The genes for HspD and HspD-NTD were cloned into pRSET A vector, using the following primers: 5′ […] 3′ as forward primer and 5′ […] 3′ as reverse primer for HspD as described previously, and 5′ […] 3′ as forward primer and 5′[…] 3′ as reverse primer for HspD-NTD, containing BamHI and XhoI sites (underlined) in forward and reverse primers, respectively. The proteins, HspD and HspD-NTD, were expressed as hexa histidine tagged fusion proteins in E. coli Rosetta strain. The cells were grown in Terrific broth and induced with 1 mM isopropyl β-D-1-thiogalactopyranoside at 15 °C for 15 hours. The proteins were purified by nickel-NTA affinity chromatography. The column was washed with imidazole gradient ranging from 5 mM to 30 mM in 50 mM Tris, pH 7.5, 500 mM NaCl, buffer. The proteins were finally eluted with 300 mM imidazole, followed by gel filtration with Sephacryl S-200 HR column and stored in 25 mM Tris and 200 mM NaCl, pH 7.5 buffer. The clone for human Hsp90 in pRSET A vector was expressed in E. coli Rosetta strain, and the protein was purified to homogeneity by nickel-NTA affinity chromatography, as described previously[31] and dialysed to exchange buffer containing 40 mM Tris-Cl, pH 7.5, 100 mM KCl and 5 mM MgCl2 for the ATPase assay. For the new construct the gene for HspD and HspD-NTD were cloned in pET-28a vector, which lacks the bound peptide sequence. The proteins were expressed and purified using the same protocol as described above.
# In order to check the effect of the peptide binding on the ATPase activity of HspD and human Hsp90, purified proteins (2 μM) were incubated with varying peptide concentrations in 40 mM Tris–Cl buffer, pH 7.4, containing 100 mM KCl and 5 mM MgCl2, at room temperature for half hour. ATPase reaction was carried out in the presence of fixed ATP concentration of 500 μM at 37 °C for one hour. γ-^32P-ATP with a specific activity of 0.55 Ci/mmol was used as a tracer. ATP hydrolysis was monitored on a PEI- cellulose TLC plate. Fractional cleavage of ATP was calculated for each peptide concentration. ATPase activity of Hsp90 alone was considered 100%, and percent change in ATPase activity was plotted against peptide concentration.
# [2] = molecular target: T2, HspD, new construct (pET-28a) (Dictyostelium discoideum, UniProt P54651); test: ATPase activity of new construct of HspD (pET-28a, lacking the linker peptide sequence) in presence of peptide; type: biochemical; conditions: 13.5 mM peptide (highest concentration), pET-28a construct, 500 μM ATP, mean ± SEM, n = 2
# T2 construct: made in house; host or cells: E. coli Rosetta (same protocol)
# T2 sequence (P54651 whole entry): as above
# Method: Bio-Layer Interferometry experiments were carried out to check the binding of the peptide RELWDD. […] The peptide can be further modified to improve the binding efficacy, thereby reducing the inhibitory concentration required to inhibit Hsp90 function.
# The genes for HspD and HspD-NTD were cloned into pRSET A vector, using the following primers: 5′ […] 3′ as forward primer and 5′ […] 3′ as reverse primer for HspD as described previously, and 5′ […] 3′ as forward primer and 5′[…] 3′ as reverse primer for HspD-NTD, containing BamHI and XhoI sites (underlined) in forward and reverse primers, respectively. The proteins, HspD and HspD-NTD, were expressed as hexa histidine tagged fusion proteins in E. coli Rosetta strain. The cells were grown in Terrific broth and induced with 1 mM isopropyl β-D-1-thiogalactopyranoside at 15 °C for 15 hours. The proteins were purified by nickel-NTA affinity chromatography. […]
# (§2) In order to check the effect of the peptide binding on the ATPase activity of HspD and human Hsp90, purified proteins (2 μM) were incubated with varying peptide concentrations in 40 mM Tris–Cl buffer, pH 7.4, containing 100 mM KCl and 5 mM MgCl2, at room temperature for half hour. […] ATP hydrolysis was monitored on a PEI- cellulose TLC plate. Fractional cleavage of ATP was calculated for each peptide concentration. […]
# [3] = molecular target: T3, HspD-NTD (pET-28a construct lacking the linker peptide) (Dictyostelium discoideum, UniProt P54651); test: biochemical; type: binding
# T3 construct: the crystal structure of the N-terminal domain of HspD (HspD-NTD); made in house; host or cells: E. coli Rosetta (same protocol)
# T3 sequence (P54651 1-225 limits assumed): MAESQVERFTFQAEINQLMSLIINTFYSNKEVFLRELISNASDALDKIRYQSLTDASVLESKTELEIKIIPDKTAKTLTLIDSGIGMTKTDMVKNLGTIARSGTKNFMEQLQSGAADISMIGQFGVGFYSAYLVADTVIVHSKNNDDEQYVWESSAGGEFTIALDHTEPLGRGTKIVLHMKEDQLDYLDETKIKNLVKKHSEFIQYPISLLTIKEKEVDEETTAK
# Method: The binding of the peptide RELWDD to HspD-NTD construct lacking the linker peptide was measured by Bio-Layer Interferometry using an Octet RED96 instrument (ForteBio, Inc.). The peptide was immobilized onto Amine Reactive Second-Generation (AR2G) Biosensors. Binding studies were performed by dipping the biosensors in varying concentrations of HspD-NTD. An equal number of unliganded sensors was used as control, to account for non-specific binding. The traces were processed using ForteBio Data Analysis Software, ver. 8.0.3.5, exported and fit globally using Biaevaluation 3.0.1. A simple 1:1 Langmuir interaction model was used for fitting the data.
# Figure S1. Binding of HspD-NTD to the peptide RELWDD using Bio-layer Interferometry.
# concentrations of the protein.
# (1 picture or pasted object on this page, not shown here)
# [4] = molecular target: T4, human Hsp90 (Homo sapiens, UniProt P07900); test: ATPase activity of human Hsp90 in presence of peptide; type: biochemical; set-up: made in house; host or cells: E. coli Rosetta; conditions: human Hsp90 2 μM, 500 μM ATP
# Method: Lys47 of HspD-NTD is observed to be in a different rotamer conformation as compared to Lys58 of the human isoform, due to the former’s interaction with the residues of the peptide. Lys58 of the human Hsp90 is likely to adopt a similar conformation in the presence of a similar peptide. The water molecules interacting with Asn40 and Asp82 in the case of HspD-NTD are also found to be conserved in human Hsp90-NTD structure. […] In order to validate this, ATPase assay was performed for human Hsp90 in the presence of the modified peptide. […] This observation that the peptide binds to the NTD and inhibits its ATPase activity paves way for the development of new class of peptide-based inhibitors for Hsp90.
# as §1, with “The clone for human Hsp90 in pRSET A vector was expressed in E. coli Rosetta strain, and the protein was purified to homogeneity by nickel-NTA affinity chromatography, as described previously[31] and dialysed to exchange buffer containing 40 mM Tris-Cl, pH 7.5, 100 mM KCl and 5 mM MgCl2 for the ATPase assay. For the new construct the gene for HspD and HspD-NTD were cloned in pET-28a vector, which lacks the bound peptide sequence. The proteins were expressed and purified using the same protocol as described above.” left out
# as §2
# [5] = molecular target: Hsp90 of Dictyostelium discoideum (HspD), full length, pRSET A construct (Dictyostelium discoideum) (UniProt P54651)
# Chain of Hsp90 of Dictyostelium discoideum (HspD), full length, pRSET A construct (Dictyostelium discoideum) (P54651 whole entry): as the sequence (P54651 whole entry) above
# [6] = molecular target: T4, human Hsp90
# [7] = molecular target: new construct of HspD, full length, in pET-28a (Dictyostelium discoideum) (UniProt P54651)
# Chain of new construct of HspD, full length, in pET-28a (Dictyostelium discoideum) (P54651 whole entry, the tested form may be a part): as the sequence (P54651 whole entry) above
# [8] = molecular target: T5, N-terminal domain of Hsp90 of Dictyostelium discoideum (HspD-NTD), pRSET A construct (Dictyostelium discoideum, UniProt P54651 1-225); test: crystal structure; hanging drop, 15 mg/mL HspD-NTD, 0.1 M HEPES pH 7.0-8.0, 10-30% PEG3350; no peptide added, the peptide comes from the vector stretch of the fusion protein; 1.2 Å; conditions: both partners purified
# T5 construct: 'a total of 225 residues', the first 214 seen in the density; forward primer starts at the ATG of the gene, reverse primer encodes ...ETTAK-stop; Expressed from pRSET A with a vector stretch (holding GRDLYDD) between the N-terminal hexahistidine tag and the NTD; source: E. coli Rosetta, purified (nickel-NTA, gel filtration on Sephacryl S-200 HR)
# T5 sequence (P54651 1-225): as the sequence (P54651 1-225 limits assumed) above
molecule,measurement,setting,value
"CC(C)C[C@H](NC(=O)[C@H](CCC(=O)O)NC(=O)[C@@H](N)CCCNC(=N)N)C(=O)N[C@@H](Cc1c[nH]c2ccccc12)C(=O)N[C@@H](CC(=O)O)C(=O)N[C@@H](CC(=O)O)C(=O)O [RELWDD, Arg-Glu-Leu-Trp-Asp-Asp] (H-RELWDD-OH)",inhibition of ATPase activity of HspD,"[1]; 10 mM peptide, HspD 2 μM, 500 μM ATP",30%
same,ATPase activity of HspD observed (Hsp90 alone = 100%),"[1]; 13.5 mM peptide (highest concentration), HspD 2 μM, 500 μM ATP, mean ± SEM, n = 5, SEM",38.50 ± 10.11%
same,inhibition of ATPase activity of HspD,"[1]; 13.5 mM peptide, HspD 2 μM, 500 μM ATP",60%
same,ATPase activity of new construct of HspD observed (Hsp90 alone = 100%),[2],50.60 ± 4.68%
same,"KD of binding to HspD-NTD, in words",[3],lower micromolar range
same,kon,"[3]; Bio-Layer Interferometry, peptide immobilized on AR2G biosensors, 1:1 Langmuir model, global fit, mean ± standard deviation, SD",90.6 ± 46.6 M⁻¹ s⁻¹
same,Kd,[3]; SD,28.2 ± 14.6 µM
same,inhibition of ATPase activity of human Hsp90,[4]; 5 mM peptide,30%
same,inhibition of ATPase activity of human Hsp90,[4]; 10 mM peptide,55%
same,ATPase activity of human Hsp90 remaining (Hsp90 alone = 100%),"[4]; 10 mM peptide, mean ± SEM, n = 2, SEM",46.91 ± 12.05%
"GRDLYDD [GRDLYDD, purchased synthetic peptide]",change in ATPase activity of HspD in the presence of the peptide,"[1]; 100 μM-13.5 mM peptide, HspD 2 μM, 500 μM ATP, 37 °C, 1 h, γ-32P-ATP, TLC",no significant change
same,"ATPase inhibition of HspD, in words",[1]; summary statement,no inhibition whatsoever
RELWDD (not fully specified) [modified hexapeptide Arg-Glu-Leu-Trp-Asp-Asp],"percent inhibition of ATPase activity of HspD (2 μM, 500 μM ATP) with rising peptide RELWDD, inhibition from 5 mM, 30% at 10 mM, highest at 13.5 mM",[5],60%
same,"percent inhibition of ATPase activity of human Hsp90 (2 μM) with rising peptide RELWDD, 30% at 5 mM, highest at 10 mM",[6],55%
same,"percent ATPase activity left of the new construct of HspD (pET-28a) with rising peptide RELWDD, at the highest concentration of 13.5 mM",[7],50.6%
B1,binding result,[8],binds
